Results: US7268136B2, “Compositions useful as inhibitors of protein kinases” (Vertex Pharmaceuticals Incorporated, priority 2002, dated 2007)

Assays:
Type in all cases: biochemical
human Src kinase = molecular target: T1, human Src kinase (Homo sapiens, UniProt P12931); test: Inhibition of SRC, radioactivity-based assay or spectrophotometric assay; details: full length recombinant human Src kinase, poly Glu-Tyr substrate; assay A or B not specified
T1 construct: full length recombinant human Src kinase (from Upstate Biotechnology, cat. no. 14-117); purchased Upstate Biotechnology 14-117; host or cells: baculo viral cells (baculovirus expression)
Experimental: The compounds are evaluated as inhibitors of human Src kinase using either a radioactivity-based assay or spectrophotometric assay.
Src Inhibition Assay A: Radioactivity-based Assay
The compounds are assayed as inhibitors of full length recombinant human Src kinase (from Upstate Biotechnology, cat. no. 14-117) expressed and purified from baculo viral cells. Src kinase activity is monitored by following the incorporation of ^33P from ATP into the tyrosine of a random poly Glu-Tyr polymer substrate of composition, Glu:Tyr=4:1 (Sigma, cat. no. P-0275). The following are the final concentrations of the assay components: 0.05 M HEPES, pH 7.6, 10 mM MgCl2, 2 mM DTT, 0.25 mg/ml BSA, 10 μM ATP (1-2 μCi ^33P-ATP per reaction), 5 mg/ml poly Glu-Tyr, and 1-2 units of recombinant human Src kinase. In a typical assay, all the reaction components with the exception of ATP are pre-mixed and aliquoted into assay plate wells. Inhibitors dissolved in DMSO are added to the wells to give a final DMSO concentration of 2.5%. The assay plate is incubated at 30° C. for 10 min before initiating the reaction with ^33P-ATP. After 20 min of reaction, the reactions are quenched with 150 μl of 10% trichloroacetic acid (TCA) containing 20 mM Na3PO4. The quenched samples are then transferred to a 96-well filter plate (Whatman, UNI-Filter GF/F Glass Fiber Filter, cat no. 7700-3310) installed on a filter plate vacuum manifold. Filter plates are washed four times with 10% TCA containing 20 mM Na3PO4 and then 4 times with methanol. 200 μl of scintillation fluid is then added to each well. The plates were sealed and the amount of radioactivity associated with the filters is quantified on a TopCount scintillation counter. The radioactivity incorporated is plotted as a function of the inhibitor concentration. The data is fitted to a competitive inhibition kinetics model to get the Ki for the compound.
Src Inhibition Assay B: Spectrophotometric Assay
The ADP produced from ATP by the human recombinant Src kinase-catalyzed phosphorylation of poly Glu-Tyr substrate is quantified using a coupled enzyme assay (Fox et al (1998) Protein Sci 7, 2249). In this assay one molecule of NADH is oxidised to NAD for every molecule of ADP produced in the kinase reaction. The disappearance of NADH is conveniently followed at 340 nm.
The following are the final concentrations of the assay components: 0.025 M HEPES, pH 7.6, 10 mM MgCl2, 2 mM DTT, 0.25 mg/ml poly Glu-Tyr, and 25 nM of recombinant human Src kinase. […]
In a typical assay, all the reaction components with the exception of ATP are pre-mixed and aliquoted into assay plate wells. […] The absorbance change at 340 nm with time, the rate of the reaction, is monitored on a molecular devices plate reader. […]

GSK-3β (AA 1-420) = molecular target: T2, GSK-3β (AA 1-420) (Homo sapiens, UniProt P49841); test: Inhibition of GSK-3, standard coupled enzyme system; details: 20 μM ATP, 300 μM peptide, 20 nM GSK-3β, 30° C.
T2 construct: GSK-3β (AA 1-420)
Experimental: Compounds were screened for their ability to inhibit GSK-3β (AA 1-420) activity using a standard coupled enzyme system (Fox et al. (1998) Protein Sci. 7, 2249). Reactions were carried out in a solution containing 100 mM HEPES (pH 7.5), 10 mM MgCl2, 25 mM NaCl, 300 μM NADH, 1 mM DTT and 1.5% DMSO. Final substrate concentrations in the assay were 20 μM ATP (Sigma Chemicals, St Louis, Mo.) and 300 μM peptide (American Peptide, Sunnyvale, Calif.). Reactions were carried out at 30° C. and 20 nM GSK-3β. Final concentrations of the components of the coupled enzyme system were 2.5 mM phosphoenolpyruvate, 300 μM NADH, 30 μg/ml pyruvate kinase and 10 μg/ml lactate dehydrogenase. An assay stock buffer solution was prepared containing all of the reagents listed above with the exception of ATP and the test compound of interest. The assay stock buffer solution (175 μl) was incubated in a 96 well plate with 5 μl of the test compound of interest at final concentrations spanning 0.002 μM to 30 μM at 30° C. for 10 min. Typically, a 12 point titration was conducted by preparing serial dilutions (from 10 mM compound stocks) with DMSO of the test compounds in daughter plates. The reaction was initiated by the addition of 20 μl of ATP (final concentration 20 μM). Rates of reaction were obtained using a Molecular Devices Spectramax plate reader (Sunnyvale, Calif.) over 10 min at 30° C. The Ki values were determined from the rate data as a function of inhibitor concentration.

PIM-1 = PIM-1 (Homo sapiens, UniProt P11309); test: Inhibition of PIM-1, standard coupled enzyme assay
Experimental: Reactions were carried out in 100 mM HEPES pH 7.5, 10 mM MgCl2, 25 mM NaCl, 1 mM DTT, 20 μg/ml BSA and 1.5% DMSO. […] Assays were carried out at 30° C. and 50 nM PIM-1.
An assay stock buffer solution was prepared containing all of the reagents listed above, with the exception of PIM-1, DTT, BSA and the test compound of interest. 56 μl of the test reaction was placed in a 384 well plate followed by addition of 1 μl of 2 mM DMSO stock containing the test compound (final compound concentration 30 μM). The plate was preincubated for ˜10 minutes at 30° C. and the reaction initiated by addition of 10 μl of enzyme in DTT and BSA (final concentrations: 50 nM PIM-1, 1 mM DTT, and 20 μg/ml BSA). Rates of reaction were obtained using a BioRad Ultramark plate reader (Hercules, Calif.) over a 5 minute read time at 30° C.

CDK-2/Cyclin A = CDK-2/Cyclin A (Homo sapiens, UniProt P24941); test: Inhibition of CDK-2, standard coupled enzyme assay; details: 100 μM ATP, 100 μM peptide, 25 nM CDK-2/Cyclin A, 30° C.
Experimental: Compounds were screened for their ability to inhibit CDK-2/Cyclin A using a standard coupled enzyme assay (Fox et al (1998) Protein Sci 7, 2249). Reactions were carried out in 100 mM HEPES pH 7.5, 10 mM MgCl2, 25 mM NaCl, 1 mM DTT and 1.5% DMSO. Final substrate concentrations in the assay were 100 μM ATP (Sigma chemicals) and 100 μM peptide (American Peptide, Sunnyvale, Calif.). Assays were carried out at 30° C. and 25 nM CDK-2/Cyclin A. Final concentrations of the components of the coupled enzyme system were 2.5 mM phosphoenolpyruvate, 350 μM NADH, 30 μg/ml pyruvate kinase and 10 μg/ml lactate dehydrogenase.
An assay stock buffer solution was prepared containing all of the reagents listed above, with the exception of CDK-2/Cyclin A, DTT and the test compound of interest. 56 μl of the test reaction was placed in a 384 well plate followed by addition of 1 μl of 2 mM DMSO stock containing the test compound (final compound concentration 30 μM). The plate was preincubated for ˜10 minutes at 30° C. and the reaction initiated by addition of 10 μl of enzyme (final concentration 25 nM). Rates of reaction were obtained using a BioRad Ultramark plate reader (Hercules, Calif.) over a 5 minute read time at 30° C. Ki values were determined according to standard methods.

T1 sequence (P12931 whole entry): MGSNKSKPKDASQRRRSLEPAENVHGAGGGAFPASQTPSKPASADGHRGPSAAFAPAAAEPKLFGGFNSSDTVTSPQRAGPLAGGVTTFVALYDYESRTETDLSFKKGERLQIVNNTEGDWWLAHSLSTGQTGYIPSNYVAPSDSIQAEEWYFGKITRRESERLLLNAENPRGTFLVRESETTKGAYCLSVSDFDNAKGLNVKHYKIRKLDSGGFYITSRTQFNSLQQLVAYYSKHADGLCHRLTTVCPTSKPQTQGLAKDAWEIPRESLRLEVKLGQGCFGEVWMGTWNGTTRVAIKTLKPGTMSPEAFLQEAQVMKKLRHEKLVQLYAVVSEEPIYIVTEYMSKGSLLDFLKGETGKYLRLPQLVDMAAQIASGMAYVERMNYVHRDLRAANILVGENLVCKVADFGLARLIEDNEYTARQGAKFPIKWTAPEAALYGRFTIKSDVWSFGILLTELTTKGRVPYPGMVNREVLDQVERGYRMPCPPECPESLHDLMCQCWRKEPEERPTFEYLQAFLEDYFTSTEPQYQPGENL
Chain of PIM-1 (P11309 whole entry): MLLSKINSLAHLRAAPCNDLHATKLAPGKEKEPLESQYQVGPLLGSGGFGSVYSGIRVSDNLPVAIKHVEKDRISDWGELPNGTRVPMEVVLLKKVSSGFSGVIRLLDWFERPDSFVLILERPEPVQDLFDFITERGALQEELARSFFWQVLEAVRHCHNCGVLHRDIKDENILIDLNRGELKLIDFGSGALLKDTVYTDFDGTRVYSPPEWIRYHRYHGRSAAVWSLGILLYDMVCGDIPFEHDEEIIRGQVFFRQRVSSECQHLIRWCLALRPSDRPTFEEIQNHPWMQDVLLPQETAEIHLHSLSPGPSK
T2 sequence (P49841 whole entry, the tested form may be a part): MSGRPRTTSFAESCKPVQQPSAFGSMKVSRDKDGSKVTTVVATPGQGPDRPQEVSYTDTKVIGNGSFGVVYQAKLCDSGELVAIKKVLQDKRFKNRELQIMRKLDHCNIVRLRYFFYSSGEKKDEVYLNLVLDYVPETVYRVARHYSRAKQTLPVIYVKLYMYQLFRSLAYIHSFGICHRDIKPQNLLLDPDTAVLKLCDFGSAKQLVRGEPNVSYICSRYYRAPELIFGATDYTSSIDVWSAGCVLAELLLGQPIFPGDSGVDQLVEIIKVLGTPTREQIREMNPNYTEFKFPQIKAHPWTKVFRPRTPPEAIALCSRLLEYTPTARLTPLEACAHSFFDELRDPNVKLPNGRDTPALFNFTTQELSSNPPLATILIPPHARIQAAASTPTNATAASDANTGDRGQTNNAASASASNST

Row | Ki (GSK-3β (AA 1-420)) [nM] | IC50 (PIM-1) [nM] | Structure (SMILES) | further results
1 | < 2000 |  | N#Cc1cccc(-c2nnc3ccc(NCC(N)=O)nn23)c1 [Compound I-40] | 
2 | < 2000 |  | COc1ccccc1Nc1nnc2ccc(Sc3ccccc3)nn12 [Compound I-62] | 
3 | < 2000 |  | COc1ccc(Nc2nnc3ccc(OC)nn23)cc1 [Compound I-66] | 
4 | < 2000 |  | COc1cccc(-c2nnc3ccc(NCC(N)=O)nn23)c1 [Compound I-39] | 
5 | < 2000 |  | COc1ccc2nnc(Nc3cc(OC)c(OC)c(OC)c3)n2n1 [Compound I-86] | 
6 | < 2000 |  | COc1ccc(Nc2nnc3ccc(OC)nn23)c(OC)c1 [Compound I-85] | 

The next lines start with the compound.

Row | Structure (SMILES) | Ki (GSK-3β (AA 1-420)) [nM] | IC50 (PIM-1) [nM] | further results
7 | FC(F)(F)c1cccc(-c2nnc3ccc(NC4CCCCC4)nn23)c1 [Compound I-26] |  |  | Ki (human Src kinase): < 5000 nM
8 | COc1ccc(-c2nnc3ccc(NCC(N)=O)nn23)cc1 [Compound I-38] | < 2000 |  | 
9 | N#Cc1ccc(-c2nnc3ccc(NCC(N)=O)nn23)cc1 [Compound I-37] | < 2000 |  | 
10 | COc1cccc(-c2nnc3ccc(NC4CC4)nn23)c1 [Compound I-28] |  | < 1000 | Ki (human Src kinase): < 5000 nM
11 | COc1ccccc1-c1nnc2ccc(NC3CC3)nn12 [Compound I-29] |  |  | Ki (human Src kinase): < 5000 nM
12 | COc1ccc2nnc(Nc3ccc(C#N)cc3)n2n1 [Compound I-73] |  |  | Ki (CDK-2/Cyclin A): < 2000 nM
13 | Fc1cccc(-c2nnc3ccc(NC4CC4)nn23)c1 [Compound I-20] |  | < 1000 | 
14 | COc1ccc2nnc(Nc3ccccc3OC)n2n1 [Compound I-68] |  |  | Ki (CDK-2/Cyclin A): < 2000 nM
15 | COc1ccc(-c2nnc3ccc(NC4CC4)nn23)cc1 [Compound I-24] |  | < 1000 | 
16 | Fc1ccc(-c2nnc3ccc(NC4CC4)nn23)cc1 [Compound I-21] | < 2000 | < 1000 | 
17 | FC(F)(F)c1cccc(-c2nnc3ccc(NC4CCC4)nn23)c1 [Compound I-25] |  | < 1000 | Ki (human Src kinase): < 5000 nM
18 | FC(F)(F)c1cccc(-c2nnc3ccc(NC4CC4)nn23)c1 [Compound I-18] | < 2000 | < 1000 | 
